Experimental data reported in paper PMC5154303, “Flavonol and imidazole derivatives block HPV16 E6 activities and reactivate apoptotic pathways in HPV^+ cells” (Cell Death & Disease, 2016).

Key:
Type in all cases: cell-based, human
UPCI-SCC90-UP-Clone 35 = test: TRAIL-induced cell death in HPV+ HNSCC line UPCI-SCC90-UP-Clone 35 (MTT); details: HPV+ #90, 40 μM compound 4 h, 50 ng/ml TRAIL + cycloheximide
Procedure: (§1) Figure 7 Myricetin and spinacine (5) can re-sensitize HPV^+, but not HPV^−, head and neck cancer cell lines to treatment with TRAIL. (a) Both HPV^− and HPV^+ HN cancer cell lines display resistance to TRAIL treatment. (b) HPV^− (UMSCC 29 and SCC 84) and (c) HPV^+ (UMSCC 47, UPCI-SCC90-UP-Clone 35, and UM-SCC47-TC-Clone 3) head and neck cancer cell lines (2 × 10^4 cells per well) were seeded into 96-well plates and allowed to incubate overnight, and then cells were pretreated with myricetin (0–200 μM) or spinacine (0–100 μM) for 4 h. […] Cell viability was measured by the MTT assay, and the viability of cells untreated with small molecules was set at 100%. Experiments were performed in triplicate, and error bars indicate the S.D.
(§2) The extracellular domain of human TRAIL was cloned into a pTriEx expression plasmid containing N-terminal Hisx6 tag. His-TRAIL was expressed in the E. coli BL-21 pLys strain and purified as previously described. Doxorubicin and cisplatin were purchased from Sigma. His-TRAIL, doxorubicin, and cisplatin were diluted in PBS to the desired concentration before using. […] All experiments were repeated at least three times (three biological replicates, carried out on different days), with each experimental group measured in triplicate within each of these individual experiments. […]

SCC 84 = test: Sensitization to doxorubicin in HPV− HNSCC line SCC 84 (MTT); details: HPV− #84, compound 0–12.5 μM, 2 μM doxorubicin
Procedure: (§3) Figure 8 Myricetin and spinacine (5) can re-sensitize HPV^+, but not HPV^−, HNSCC cell lines to treatment with doxorubicin. Two HPV^− (UMMSCC 29 and SCC 84) and three HPV^+ (UMSCC 47, UPCI-SCC90-UP-Clone 35, and UM-SCC47-TC Clone 3) head and neck cancer cell lines (2 × 10^4 cells per well) were seeded into 96-well plates and allowed to incubate overnight, and then cells were pretreated with myricetin or spinacine (0–12.5 μM) for 4 h. In all, 2 μM of doxorubicin was added, and the cells were allowed to incubate overnight. Cell viability was measured by MTT assay, and the viability of cells untreated with small molecules was set at 100%. Experiments were performed in triplicate, and error bars indicate the S.D.
as §2

p53 = p53 ELISA in C33A cells; details: C33A cells (HPV−, mutant p53), with 4 μg/ml mitomycin C, 24 h
Procedure: Figure 6 Treatment with myricetin and spinacine (5) increases cellular levels of caspase 8 and p53. (a) SiHa cells (1 × 10^6 per well) were seeded into a six-well plate and allowed to incubate overnight. The indicated concentrations of myricetin and spinacine were added, and then cells were incubated for 24 h. Cells were then washed in 1 × PBS and then harvested, and the resulting level of caspase 8 was measured by immunoblot. (b) SiHa and C33A cells (1 × 10^6 per well) were seeded into a six-well plate and allowed to incubate overnight. In all, 200 μM of myricetin and 100 μM spinacine were added together with 4 μg/ml mitomycin C and incubated for 24 h. The resulting level of p53 was measured by enzyme-linked immunosorbent assay, and the level of p53 found in untreated cells was set at 100%. Experiments were performed in triplicate, and error bars indicate the S.D.
The p53 ELISA was performed as described previously,[26] with some modifications. Antibodies secreted by clone pAb122 (hybridoma obtained from ATCC, antibodies purified from the culture medium using protein-A Sepharose) were used as monoclonal capture antibodies. […] The average and S.D. of the replicates (a minimum of three) were calculated, normalized to the control, and used to prepare the graph.

UMSCC 29 = test: Sensitization to doxorubicin in HPV− HNSCC line UMSCC 29 (MTT); details: HPV− #29, compound 0–12.5 μM, 2 μM doxorubicin
Procedure: as §3, §2

SCC84 = test: TRAIL-induced cell death in HPV− HNSCC line SCC84 (MTT); details: HPV− #84, myricetin 0–200 μM or spinacine 0–100 μM, 50 ng/ml TRAIL
Procedure: as §1, §2

Row | Compound | enhancement of TRAIL-induced cell death (UPCI-SCC90-UP-Clone 35) | response to doxorubicin in presence and absence of compound (SCC 84) | change in p53 levels (p53; 200 μM) | response to doxorubicin in presence and absence of compound (UMSCC 29) | response to TRAIL in presence and absence of compound (SCC84) | change in p53 levels (p53; 100 μM)
1 | O=c1c(O)c(-c2cc(O)c(O)c(O)c2)oc2cc(O)cc(O)c12 [Myricetin, myricetin, reference compound] | 30% | resistant | no significant change | resistant | resistant | 
2 | O=C(O)C1Cc2[nH]cnc2CN1 (stereo not shown) [Spinacine (5), 4,5,6,7-tetrahydro-1H-imidazo[4,5–c]pyridine-6-carboxylic acid] | up to 50% | resistant |  | resistant | resistant | no significant change
